Data as given in ChEMBL document CHEMBL1201862, “PubChem BioAssay data set” (2004).
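Briefly, cells in 96-well plates were exposed to five compound concentrations for 48 h, and endpoints were estimated by linear interpolation. GI50 marks 50% less growth.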 Activity calls are given as the source filed them. Rule as the data show it: active = GI50 up to about 1.1 µM and inactive = higher.

What was measured:
Assay in all cases: NCI tumour cell line growth inhibition, 48 h
SK-MEL-5 = tested on: SK-MEL-5
UACC-62 = tested on: UACC-62
OVCAR-8 = tested on: OVCAR-8
SNB-19 = tested on: SNB-19
TK-10 = tested on: TK-10
OVCAR-4 = tested on: OVCAR-4
CAKI-1 = tested on: CAKI-1
EKVX = tested on: EKVX
A549 = tested on: A549
UACC-257 = tested on: UACC-257
ACHN = tested on: ACHN
OVCAR-3 = tested on: OVCAR-3
SF-295 = tested on: SF-295
NCI-H460 = tested on: NCI-H460
HCT-116 = tested on: HCT-116
CCRF-CEM = tested on: CCRF-CEM

Measured: GI50

COc1ccc(/C=C/COC(C)=O)cc1OC
inactive: SK-MEL-5 > 100 µM | UACC-62 > 100 µM | OVCAR-8 > 100 µM | SNB-19 > 100 µM | TK-10 > 100 µM | OVCAR-4 > 100 µM | CAKI-1 > 100 µM | EKVX > 100 µM | A549 > 100 µM | UACC-257 > 100 µM | ACHN > 100 µM | OVCAR-3 > 100 µM | SF-295 > 100 µM

C[N+]1(C)C/C(=C/c2ccc(F)cc2)C(=O)/C(=C\c2ccc(F)cc2)C1
inactive: NCI-H460 50.9 µM | UACC-62 13.8 µM | OVCAR-8 47.2 µM | SNB-19 49.3 µM | TK-10 > 100 µM | OVCAR-4 > 100 µM | EKVX > 100 µM | A549 74 µM | UACC-257 24.7 µM | ACHN > 100 µM | OVCAR-3 45.5 µM | SF-295 50.6 µM | HCT-116 > 100 µM | CCRF-CEM 23.7 µM

O=C1CCCC(O)=C1SC1=C(O)CCCC1=O
inactive: SK-MEL-5 > 100 µM | UACC-62 46.9 µM | OVCAR-8 > 100 µM | SNB-19 > 100 µM | TK-10 > 100 µM | OVCAR-4 > 100 µM | CAKI-1 94.2 µM | EKVX > 100 µM | A549 70.3 µM | UACC-257 > 100 µM | OVCAR-3 > 100 µM | SF-295 > 100 µM | HCT-116 76 µM | CCRF-CEM 71.6 µM

Cn1c(=O)c2nc3sc4ccccc4c(=N)n3c2n(C)c1=O
inactive: SK-MEL-5 > 100 µM | NCI-H460 > 100 µM | UACC-62 > 100 µM | OVCAR-8 > 100 µM | SNB-19 > 100 µM | TK-10 > 100 µM | OVCAR-4 > 100 µM | CAKI-1 > 100 µM | EKVX > 100 µM | A549 > 100 µM | UACC-257 > 100 µM | ACHN > 100 µM | SF-295 > 100 µM | CCRF-CEM > 100 µM

N#CC(NNC(=O)c1ccccc1O)c1ccccc1O (configuration not stated)
inactive: SK-MEL-5 8.89 µM | NCI-H460 4.85 µM | UACC-62 2.72 µM | OVCAR-8 3.58 µM | TK-10 68.9 µM | OVCAR-4 9.64 µM | CAKI-1 3.27 µM | A549 8.69 µM | UACC-257 4.06 µM | ACHN 2.44 µM | OVCAR-3 2.52 µM | SF-295 9.23 µM | HCT-116 4.29 µM | CCRF-CEM 2.06 µM

CC(C)(C)c1ccc2c(c1)S(=O)(=O)Nc1cccc(c1)NS(=O)(=O)c1cc(C(C)(C)C)ccc1OCCOCCO2
inactive: SK-MEL-5 > 100 µM | NCI-H460 > 100 µM | UACC-62 > 100 µM | OVCAR-8 > 100 µM | SNB-19 > 100 µM | TK-10 > 100 µM | OVCAR-4 > 100 µM | CAKI-1 > 100 µM | EKVX > 100 µM | A549 > 100 µM | UACC-257 > 100 µM | ACHN > 100 µM | OVCAR-3 > 100 µM | SF-295 > 100 µM | HCT-116 > 100 µM

O=[N+]([O-])c1cccc(-c2oc(/C=N/c3ccccc3)c([N+](=O)[O-])c2-c2cccc([N+](=O)[O-])c2)c1
inactive: SK-MEL-5 > 100 µM | NCI-H460 > 100 µM | UACC-62 > 100 µM | OVCAR-8 > 100 µM | TK-10 > 100 µM | EKVX > 100 µM | A549 > 100 µM | UACC-257 > 100 µM | ACHN > 100 µM | OVCAR-3 > 100 µM | SF-295 > 100 µM | HCT-116 > 100 µM | CCRF-CEM > 100 µM

Cc1ccc([S+]([O-])c2ccccc2[N+](=O)[O-])cc1 (configuration not stated)
inactive: SK-MEL-5 70 µM | NCI-H460 79.8 µM | UACC-62 > 100 µM | OVCAR-8 > 100 µM | SNB-19 58.3 µM | TK-10 > 100 µM | OVCAR-4 39.1 µM | CAKI-1 43.9 µM | A549 70.1 µM | UACC-257 > 100 µM | ACHN > 100 µM | OVCAR-3 73.8 µM | SF-295 > 100 µM | HCT-116 > 10 µM | CCRF-CEM 28.6 µM

Cc1ccc(S(=O)(=O)N/N=C(\c2nc3ccc(Cl)cc3[nH]c2=O)C(O)c2ccco2)cc1 (configuration not stated)
inactive: SK-MEL-5 > 100 µM | NCI-H460 > 100 µM | UACC-62 > 100 µM | SNB-19 > 100 µM | TK-10 > 100 µM | OVCAR-4 > 100 µM | CAKI-1 > 100 µM | EKVX > 100 µM | A549 > 100 µM | UACC-257 > 100 µM | ACHN > 100 µM | OVCAR-3 > 100 µM | SF-295 > 100 µM | HCT-116 > 100 µM | CCRF-CEM 7.5 µM

C#CCn1c(=O)[nH]c(=O)c2cccnc21
inactive: SK-MEL-5 > 100 µM | SNB-19 > 100 µM | TK-10 > 100 µM | OVCAR-4 > 100 µM | CAKI-1 > 100 µM | A549 > 100 µM | UACC-257 > 100 µM | ACHN > 100 µM | SF-295 > 100 µM | HCT-116 > 100 µM

COc1ccc2c3ccc4c(c3n(C)c2c1)C(=O)C=CC4=O
inactive: SK-MEL-5 > 100 µM | UACC-62 40.3 µM | OVCAR-8 16.9 µM | SNB-19 > 100 µM | OVCAR-4 29.6 µM | EKVX 72.8 µM | A549 > 100 µM | UACC-257 29.2 µM | ACHN 20.7 µM | SF-295 > 100 µM | HCT-116 19.6 µM | CCRF-CEM 2.93 µM

CCOC(=O)C(C)(C)Oc1ccc(/C=C/C(=O)c2ccc(Cl)cc2)cc1
inactive: SK-MEL-5 14.9 µM | NCI-H460 28.7 µM | UACC-62 20.6 µM | OVCAR-8 21.6 µM | SNB-19 19.2 µM | TK-10 70.8 µM | OVCAR-4 18.9 µM | EKVX > 100 µM | A549 33.5 µM | UACC-257 18.4 µM | ACHN > 10 µM | OVCAR-3 16.3 µM | SF-295 21 µM | HCT-116 16.4 µM | CCRF-CEM 17.2 µM

CCOc1ccccc1NC(=O)CCC(=O)NN
inactive: SK-MEL-5 > 100 µM | NCI-H460 > 100 µM | UACC-62 > 100 µM | OVCAR-8 > 100 µM | SNB-19 > 100 µM | TK-10 > 100 µM | OVCAR-4 > 100 µM | CAKI-1 > 100 µM | A549 > 100 µM | UACC-257 > 100 µM | ACHN > 100 µM | OVCAR-3 > 100 µM | SF-295 > 100 µM | HCT-116 > 100 µM | CCRF-CEM > 100 µM

CS(=O)(=O)C1S(=O)(=O)OCCOS1(=O)=O
inactive: SK-MEL-5 > 100 µM | NCI-H460 > 100 µM | UACC-62 > 100 µM | OVCAR-8 > 100 µM | SNB-19 > 100 µM | TK-10 > 100 µM | OVCAR-4 > 100 µM | CAKI-1 > 100 µM | EKVX > 100 µM | A549 > 100 µM | UACC-257 > 100 µM | ACHN > 100 µM | OVCAR-3 > 100 µM | SF-295 > 100 µM | HCT-116 > 100 µM

O=C(O)C(CS)Nc1c2ccccc2nc2ccccc12 (configuration not stated)
inactive: NCI-H460 36.1 µM | OVCAR-8 48.3 µM | SNB-19 61.1 µM | TK-10 35.6 µM | OVCAR-4 19.7 µM | CAKI-1 44.7 µM | EKVX 42.7 µM | A549 67.5 µM | UACC-257 58.5 µM | ACHN 38.3 µM | OVCAR-3 49.9 µM | SF-295 56.9 µM | HCT-116 > 10 µM | CCRF-CEM 79.3 µM

COc1ccc(Br)c(C(=O)N2CCc3ccccc32)c1N
inactive: SK-MEL-5 40.2 µM | NCI-H460 36 µM | UACC-62 43.8 µM | OVCAR-8 32.3 µM | SNB-19 63 µM | TK-10 42.9 µM | OVCAR-4 34.8 µM | A549 59.6 µM | UACC-257 29.9 µM | ACHN 49 µM | OVCAR-3 27.5 µM | SF-295 46.2 µM | HCT-116 42.2 µM | CCRF-CEM 33.4 µM

CC(C)=CC(=O)C/C(=N\NC(N)=S)C(=O)Nc1ccc(Cl)cc1
inactive: SK-MEL-5 > 100 µM | NCI-H460 > 100 µM | UACC-62 > 100 µM | OVCAR-8 > 100 µM | SNB-19 > 100 µM | TK-10 > 100 µM | OVCAR-4 > 100 µM | CAKI-1 > 100 µM | EKVX > 100 µM | A549 > 100 µM | UACC-257 > 100 µM | ACHN > 100 µM | OVCAR-3 > 100 µM | SF-295 > 100 µM | HCT-116 > 100 µM | CCRF-CEM > 100 µM

Cc1cn(C2CC(O)C(COC(=O)c3ccccc3)O2)c(=O)[nH]c1=O (configuration not stated)
inactive: SK-MEL-5 > 100 µM | NCI-H460 > 100 µM | UACC-62 > 100 µM | OVCAR-8 > 100 µM | SNB-19 > 100 µM | TK-10 > 100 µM | OVCAR-4 > 100 µM | CAKI-1 > 100 µM | A549 > 100 µM | UACC-257 > 100 µM | ACHN > 100 µM | OVCAR-3 > 100 µM | SF-295 > 100 µM | HCT-116 > 100 µM | CCRF-CEM > 100 µM

CC(C)(C)C(=O)/C=C/c1ccc(Oc2ccccc2)cc1
inactive: SK-MEL-5 16.2 µM | NCI-H460 19.2 µM | OVCAR-8 30.7 µM | SNB-19 26.2 µM | TK-10 26.6 µM | EKVX 20 µM | A549 28.5 µM | UACC-257 18.7 µM | ACHN 17.5 µM | SF-295 24.8 µM | HCT-116 12.1 µM | CCRF-CEM 10.4 µM

CC(C)=CCCC1(C)C=Cc2c(c(C)cc3c2[nH]c2cc(O)ccc23)O1 (configuration not stated)
inactive: SK-MEL-5 > 25 µM | NCI-H460 > 25 µM | UACC-62 > 25 µM | OVCAR-8 > 25 µM | SNB-19 > 25 µM | TK-10 > 25 µM | OVCAR-4 22.7 µM | A549 > 25 µM | ACHN > 25 µM | OVCAR-3 > 25 µM | HCT-116 > 25 µM | CCRF-CEM > 25 µM
